# Measurements published in ChEMBL document CHEMBL1201862, “PubChem BioAssay data set” (2004).
# The source made the active and inactive calls.
# What was measured:
# [1] = HEK-293T viability loss after treatment – luminescence, T-cell screen hits, cytotoxicity control for TCR NF-kB inhibitor project, dose response (AID 489026); type: functional, cell-based;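 note: cells exposed to compound about 14 hours before the viability readout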
# [2] = non-specific 3'UTR reporter inhibition in Clone20-Shn3RL – cell-based, Renilla luciferase, cherry-picked, counter-screen for Shn3 inhibitor project, dose response (AID 624133); type: functional
# [3] = HIV-1 AD8 envelope cell-cell fusion blockers – cherry-pick, dose response (AID 652062); type: functional, cell-based;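 note: luciferase signal from cell-cell fusion driven by HIV-1 clade B AD8 Env; potency is for inhibitors of fusion seen as a drop in luminescence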
# [4] = viability loss in CEM21 cells – cell-based, CellTiter-Glo luminescence, cherry-picked, cytotoxicity control for viral fusion inhibitor project, dose response (AID 652042); type: functional;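 note: potency for signal decrease meaning cytotoxicity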
# [5] = reduction of Shn3 3'UTR-driven luciferase in osteoblasts – cell-based, Clone20 osteoblasts, firefly luciferase, cherry-picked, dose response (AID 624132); type: functional;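 note: firefly luciferase luminescence from reporter carrying the Shn3 3'UTR in osteoblasts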
# [6] = loss of viability in HepG2 cells – cell-based, CellTiter-Glo, cherry-picked, cytotoxicity control for Shn3 inhibitor project, dose response (AID 624134); type: functional
# [7] = biological target: T1, Short transient receptor potential channel 4 (Mus musculus, UniProt Q9QUQ5); assay: calcium entry via TRPC4 opening agents – cell-based, HEK293 TRPC4/mu-opioid, Fluo-4 calcium, dose response (AID 434937); type: functional
# T1 sequence (Q9QUQ5 whole entry): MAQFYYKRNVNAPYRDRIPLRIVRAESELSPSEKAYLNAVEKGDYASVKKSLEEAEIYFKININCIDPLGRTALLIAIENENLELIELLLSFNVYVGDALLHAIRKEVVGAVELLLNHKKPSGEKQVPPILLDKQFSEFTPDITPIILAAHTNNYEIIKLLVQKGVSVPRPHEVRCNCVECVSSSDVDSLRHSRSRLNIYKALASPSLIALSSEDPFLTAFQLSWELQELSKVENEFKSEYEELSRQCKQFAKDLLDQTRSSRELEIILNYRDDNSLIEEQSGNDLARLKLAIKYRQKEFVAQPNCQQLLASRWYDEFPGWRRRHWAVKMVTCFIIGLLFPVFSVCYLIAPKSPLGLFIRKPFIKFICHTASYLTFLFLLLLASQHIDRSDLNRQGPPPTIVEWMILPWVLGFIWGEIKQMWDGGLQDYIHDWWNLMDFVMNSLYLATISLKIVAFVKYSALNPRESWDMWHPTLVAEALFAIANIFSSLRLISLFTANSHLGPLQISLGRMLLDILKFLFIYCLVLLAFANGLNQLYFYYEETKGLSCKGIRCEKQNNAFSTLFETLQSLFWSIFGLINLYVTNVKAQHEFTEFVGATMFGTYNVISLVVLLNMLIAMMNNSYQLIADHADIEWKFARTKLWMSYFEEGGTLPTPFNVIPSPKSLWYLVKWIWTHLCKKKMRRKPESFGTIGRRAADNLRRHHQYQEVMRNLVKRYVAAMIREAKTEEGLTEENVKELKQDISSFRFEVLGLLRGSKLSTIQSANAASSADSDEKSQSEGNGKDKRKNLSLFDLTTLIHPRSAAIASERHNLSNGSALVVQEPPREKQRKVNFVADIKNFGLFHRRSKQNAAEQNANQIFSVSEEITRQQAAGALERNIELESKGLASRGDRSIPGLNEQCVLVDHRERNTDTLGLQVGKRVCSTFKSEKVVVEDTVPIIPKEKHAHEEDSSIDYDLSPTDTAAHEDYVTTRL
# [8] = biological target: T2, COUP transcription factor 2 (Homo sapiens, UniProt P24468); assay: Luminescence-based cell-based high throughput dose response assay to identify inhibitors of COUP-TFII (NR2F2).; type: functional;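 note: HEK293 cells transiently cotransfected with COUP-TFII expression vector and reporter; luciferase reporter luminescence driven by COUP-TFII from the pX2-168 reporter plasmid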
# T2 sequence (P24468 whole entry): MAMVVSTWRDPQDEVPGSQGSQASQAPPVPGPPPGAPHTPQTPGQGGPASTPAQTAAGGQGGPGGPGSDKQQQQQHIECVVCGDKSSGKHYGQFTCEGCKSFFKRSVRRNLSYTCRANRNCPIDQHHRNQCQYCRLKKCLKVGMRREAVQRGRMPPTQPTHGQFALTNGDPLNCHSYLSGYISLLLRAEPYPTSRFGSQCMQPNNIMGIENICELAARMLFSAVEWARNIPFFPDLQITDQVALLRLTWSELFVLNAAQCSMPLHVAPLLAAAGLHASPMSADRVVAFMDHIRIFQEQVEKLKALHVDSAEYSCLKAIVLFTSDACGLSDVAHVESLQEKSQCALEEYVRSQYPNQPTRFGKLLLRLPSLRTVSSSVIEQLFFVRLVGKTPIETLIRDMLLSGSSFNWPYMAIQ
# [9] = test system: Streptococcus; assay: GAS UMAA2166 growth inhibition – luminescence, BacTiterGlo, counter-screen for streptokinase expression inhibitor project, dose response (AID 1915); type: functional, organism-based;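 note: potency for reduction of bacterial viability or growth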
# [10] = HGIII-sPLA2 enzyme inhibition potency – biochemical, QFRET, IC50, dose response (AID 743457);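 note: green fluorescence rise as the enzyme cleaves BODIPY PC-A2 in liposomes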
# [11] = NIH-3T3 fibroblast cytotoxicity, dose response, cytotoxicity control, cell-based, fluorescence, Alamar Blue, secondary assay (AID 2327); type: functional;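 note: NIH-3T3 mouse fibroblasts cultured with fluconazole at 8 µg/mL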
# [12] = fluconazole-exposed Candida albicans growth modulators – fluorescence, retest, confirmation (AID 2467); type: functional, cell-based
# [13] = test system: Streptococcus sp. 'group A'; assay: Streptococcus pyogenes SK(-)GAS viability under kanamycin – luminescence, BacTiterGlo, confirmation, counter-screen for streptokinase expression inhibitor project, dose response (AID 1900); type: functional, organism-based
# [14] = general cell-killing toxicity readout – plate reader, dry powder samples, cytotoxicity control for PAX8 inhibitor project, dose response (AID 743021); type: functional, cell-based
# [15] = biological target: Paired box protein Pax-8 (Homo sapiens, UniProt Q06710); assay: PAX8 transcriptional activity inhibition in RMG-I – RMG-I cells, luciferase, cherry-pick, dose response (AID 687027); type: functional, cell-based;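 note: luciferase reporter driven by Pax8 target thyroperoxidase promoter measured by SteadyGlo luminescence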
# Chain of Paired box protein Pax-8 (Q06710 whole entry): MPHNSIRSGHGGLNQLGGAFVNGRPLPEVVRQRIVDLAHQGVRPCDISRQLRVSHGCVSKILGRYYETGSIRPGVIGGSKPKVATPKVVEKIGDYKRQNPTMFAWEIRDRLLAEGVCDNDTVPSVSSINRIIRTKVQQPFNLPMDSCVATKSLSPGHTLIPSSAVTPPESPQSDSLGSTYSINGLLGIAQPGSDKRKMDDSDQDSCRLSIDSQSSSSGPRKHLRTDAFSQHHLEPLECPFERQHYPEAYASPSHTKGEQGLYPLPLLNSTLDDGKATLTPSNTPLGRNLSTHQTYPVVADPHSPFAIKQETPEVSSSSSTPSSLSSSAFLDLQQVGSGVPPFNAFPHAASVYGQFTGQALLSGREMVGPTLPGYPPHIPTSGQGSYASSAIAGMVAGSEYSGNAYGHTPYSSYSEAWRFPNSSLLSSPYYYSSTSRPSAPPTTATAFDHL
# [16] = biological target: T3, Ubiquitin-conjugating enzyme E2 N (Homo sapiens, UniProt P61088); type: functional;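 note: Dose-response confirmation in a TR-FRET assay detecting UBC13-driven polyubiquitin chain formation, inhibition measured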
# T3 sequence (P61088 whole entry): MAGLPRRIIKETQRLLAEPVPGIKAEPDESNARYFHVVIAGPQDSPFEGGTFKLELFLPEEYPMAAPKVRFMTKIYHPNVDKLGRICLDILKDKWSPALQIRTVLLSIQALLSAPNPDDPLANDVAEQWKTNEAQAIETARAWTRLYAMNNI
# [17] = biological target: T4, Corticotropin-releasing factor receptor 2/Corticotropin-releasing factor-binding protein (Homo sapiens, UniProt P24387+Q13324); assay: activators of CRF receptor 2 with binding protein – uHTS hits, confirmation (AID 602473); type: functional; settings: read-out: EC50_Mean
# T4 sequence (Q13324 whole entry): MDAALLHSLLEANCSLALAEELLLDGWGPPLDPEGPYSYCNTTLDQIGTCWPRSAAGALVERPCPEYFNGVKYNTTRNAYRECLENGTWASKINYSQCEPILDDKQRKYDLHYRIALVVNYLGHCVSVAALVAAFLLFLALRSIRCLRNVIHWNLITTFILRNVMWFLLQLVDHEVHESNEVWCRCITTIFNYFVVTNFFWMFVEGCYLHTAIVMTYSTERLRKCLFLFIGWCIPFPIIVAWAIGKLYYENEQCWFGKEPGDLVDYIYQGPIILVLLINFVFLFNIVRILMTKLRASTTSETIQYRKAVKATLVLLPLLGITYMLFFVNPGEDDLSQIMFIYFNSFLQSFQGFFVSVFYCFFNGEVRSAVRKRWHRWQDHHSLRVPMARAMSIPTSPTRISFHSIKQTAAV
# T4 sequence (P24387 whole entry): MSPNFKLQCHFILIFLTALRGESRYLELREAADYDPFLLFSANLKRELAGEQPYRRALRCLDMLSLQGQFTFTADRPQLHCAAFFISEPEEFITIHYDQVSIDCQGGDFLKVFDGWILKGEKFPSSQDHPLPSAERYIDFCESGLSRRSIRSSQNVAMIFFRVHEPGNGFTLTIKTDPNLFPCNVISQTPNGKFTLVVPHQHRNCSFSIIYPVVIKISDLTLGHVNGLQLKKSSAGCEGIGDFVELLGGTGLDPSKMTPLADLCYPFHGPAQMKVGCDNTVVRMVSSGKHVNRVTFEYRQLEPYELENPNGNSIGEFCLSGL
# [18] = biological target: T4, Corticotropin-releasing factor receptor 2/Corticotropin-releasing factor-binding protein; assay: Dose Response confirmation of uHTS hits for small molecule antagonists of the CRF-binding protein and CRF-R2 receptor complex.; type: functional; settings: read-out: IC50_Mean
# [19] = luciferase reporter signal suppression in cells – H4 neuroglioma cells, luminescence, dose response (AID 1990); type: functional, cell-based
# [20] = biological target: Beta Lactamase (Pseudomonas aeruginosa, UniProt Q932Y6); assay: BLA reporter interference, concentration series – BLA reporter cells, FRET fluorescence, artefact control for NOD2-RIPK2 interaction inhibitor project, dose response (AID 651552); type: functional, cell-based
# Chain of Beta Lactamase (Q932Y6 whole entry, the tested form may be a part): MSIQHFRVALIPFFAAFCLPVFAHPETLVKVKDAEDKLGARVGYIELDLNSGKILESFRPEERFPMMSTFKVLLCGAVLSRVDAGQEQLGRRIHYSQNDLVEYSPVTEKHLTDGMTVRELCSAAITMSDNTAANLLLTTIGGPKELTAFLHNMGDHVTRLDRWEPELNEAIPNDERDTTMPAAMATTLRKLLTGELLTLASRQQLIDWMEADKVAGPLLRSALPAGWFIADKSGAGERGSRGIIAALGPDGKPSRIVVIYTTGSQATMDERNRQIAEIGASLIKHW
# [21] = Fluorescence-based cell-based high throughput dose response assay for inhibitors of the interaction of nucleotide-binding oligomerization domain containing 2 (NOD2) and the receptor-interacting serine-threonine kinase 2 (RIPK2).; type: functional; settings: Homo sapiens
# [22] = alpha-synuclein stem-loop luciferase translation blockers – H4 neuroglioma cells, luminescence, confirmation (AID 1988); type: functional, cell-based
# [23] = Luminescence Cell-Based Dose Response HTS to Identify Inhibitors of 5'UTR Stem-Loop Driven Prion Protein mRNA Translation in H4 Neuroglioblastoma Cells. [Related pubchem assays: 1827 (Project Summary), 1813 (Primary HTS)]; type: functional
# [24] = biological target: T5, Galanin receptor type 3 (Homo sapiens, UniProt O60755); assay: Fluorescence-based cell-based primary high throughput dose response assay to identify antagonists of the Galanin Receptor 3 (GalR3).; type: functional
# T5 sequence (O60755 whole entry): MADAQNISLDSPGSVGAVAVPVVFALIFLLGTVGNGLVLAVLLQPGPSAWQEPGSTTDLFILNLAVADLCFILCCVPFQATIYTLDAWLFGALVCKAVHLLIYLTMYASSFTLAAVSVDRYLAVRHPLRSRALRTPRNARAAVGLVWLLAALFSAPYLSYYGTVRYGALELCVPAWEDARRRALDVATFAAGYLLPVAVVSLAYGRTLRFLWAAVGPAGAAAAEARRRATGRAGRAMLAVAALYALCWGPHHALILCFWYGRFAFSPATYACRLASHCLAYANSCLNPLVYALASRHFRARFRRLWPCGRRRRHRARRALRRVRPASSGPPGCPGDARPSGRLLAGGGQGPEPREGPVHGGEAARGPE
structure (smiles),measurement,setting,value
O=C(Nc1ccncc1)c1ccc(Cl)c(S(=O)(=O)N2CCc3ccccc32)c1,IC50,[1],62.9 µM (inactive)
same,AC50,[2],16.6 µM (active)
same,AC50,[3],2.18 µM (active)
same,AC50,[4],51.1 µM (active)
same,AC50,[5],3.19 µM (active)
same,AC50,[6],6.33 µM (active)
same,EC50,[7],5.31 µM (active)
same,IC50,[8],4.67 µM (active)
S=C(Nc1ccc(Cl)cc1)c1nc2ccccc2[nH]1,EC50,[9],3.17 µM (active)
same,IC50,[10],> 122 µM (inactive)
same,EC50,[11],19 µM (active)
same,EC50,[12],> 38 µM (not active)
same,EC50,[13],1.26 µM (active)
COc1cccc(/C=C2/Sc3ccc(C(=O)NCCN4CCCCCC4)cc3NC2=O)c1,AC50,[14],36 µM (active)
same,AC50,[15],10.1 µM (active)
same,IC50,[16],> 20 µM (inactive)
COc1ccc(NC(=O)COc2ccc(N(C)S(=O)(=O)c3ccc(Cl)cc3)cc2)cc1OC,AC50,[2],1.81 µM (active)
same,AC50,[5],1.35 µM (active)
same,AC50,[6],32.1 µM (active)
same,IC50,[8],6.67 µM (active)
Nc1ccc(S(=O)(=O)Nc2ccc(Cl)nn2)cc1 [SULFACHLORPYRIDAZINE],EC50,[17],> 53 µM (inactive)
same,IC50,[18],> 47.1 µM (inactive)
Cc1cccc(CS(=O)(=O)c2ncc(Cl)c(C(=O)NCc3ccccc3)n2)c1,AC50,[2],14 µM (active)
same,EC50,[19],> 120 µM (not active)
same,AC50,[5],2.94 µM (active)
same,IC50,[20],12.3 µM (inactive)
same,AC50,[6],18.8 µM (active)
same,IC50,[21],2.77 µM (active)
same,EC50,[22],12 µM (active)
same,EC50,[23],26.1 µM (active)
c1ccc(CNc2ncnc3ccccc23)cc1,IC50,[8],10.3 µM (inactive)
same,IC50,[24],2.42 µM (active)
